PubChem BioAssay (NCI)
Values joined by “and” are separate entries in the source; they are usually repeats but may differ in a detail not shown here. Equal entries are not always repeated.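 The compound was tested at five concentrations on cells cultured in 96-well plates, with a 48-hour exposure period. Here, GI50 denotes the concentration required for 50% inhibition of growth. The concentration for full growth arrest is given as TGI.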

Tests used:
Test in all cases: inhibition of tumour cell growth, NCI panel, 48 h
[1] = test system: HT29 colon
[2] = test system: MOLT-4 leukemia
[3] = test system: UACC-257 melanoma
[4] = test system: UACC-62 melanoma
[5] = test system: NCI-H522 lung
[6] = test system: OVCAR-3 ovarian
[7] = test system: A549 NSCLC
[8] = test system: NCI-H23 lung
[9] = test system: M14 melanoma

Structure (SMILES) | TGI [1] [µM] | TGI [2] [µM] | TGI [3] [µM] | TGI [4] [µM] | TGI [5] [µM] | TGI [6] [µM] | TGI [7] [µM] | TGI [8] [µM] | GI50 [9] [µM] | TGI [9] [µM] | GI50 [2] | GI50 [4] | GI50 [5] [µM] | GI50 [6] [µM] | GI50 [8]
FC(F)(F)c1cccc(C2SCc3nc4ccccc4n32)c1 (stereo not drawn) | > 100 | > 100 | > 100 | > 100 | > 100 | > 100 | > 100 | > 100 | – | – | – | – | – | – | –
C/C=C/C1=CN2C(=O)c3cc(OC4OC(C)C(NC)C(C)(O)C4O)c(C)c(O)c3N=C[C@@H]2C1 (stereo partly drawn) | 10.2 | – | – | – | 0.302 | – | 24.8 | – | 0.0589 | 0.213 | 0.0413 µM and < 0.01 µM | 0.0918 µM and < 0.01 µM | 0.119 | 0.203 | 0.0784 µM and < 0.01 µM
COc1cc(Nc2nc3cc(C(F)(F)F)ccc3nc2C)cc(OC)c1OC | 13 | 31 | 21.4 | 13.3 | 25 | 30.9 | – | 23.2 | – | 21.3 | – | – | – | – | –
FC(F)(F)c1nc(-c2ccccc2)oc1Sc1oc(-c2ccccc2)nc1C(F)(F)F | > 100 | > 100 | > 100 | > 100 | > 100 | > 100 | > 100 | > 100 | – | > 100 | – | – | – | – | –
O=C(O)[C@@H](NS(=O)(=O)c1ccc([N+](=O)[O-])cc1)c1ccccc1 | > 100 | > 100 | > 100 | > 100 | > 100 | > 100 | > 100 | > 100 | – | > 100 | – | – | – | – | –
c1ccc2c(c1)[nH]c1c2ncc2[nH]c3ccccc3c21 | 11.1 | 8.96 | – | 3.36 | 21 | 6.96 | 22.6 | 33.5 | – | 7.99 | – | – | – | – | –
CC(C)c1cccc(C(C)C)c1NC(=O)CCC(=O)NN | > 100 | > 100 | > 100 | > 100 | – | > 100 | > 100 | > 100 | – | > 100 | – | – | – | – | –
Cn1sc2ccccc2c1=S | 23.3 | 14.1 | 21.3 | 18.1 | 9.36 | 10.5 | 28.8 | 34.7 | – | 22.2 | – | – | – | – | –
CCCN1C(=O)CNC(=O)c2[nH]cnc21 | > 100 | > 100 | > 100 | > 100 | > 100 | > 100 | > 100 | > 100 | – | > 100 | – | – | – | – | –
